Key:
[1] = molecular target: Gastrin/cholecystokinin type B receptor (Cavia porcellus); test: Binding activity towards cholecystokinin-B (CCK-B) receptor in guinea pig cortex
[2] = molecular target: Gastrin/cholecystokinin type B receptor (Cavia porcellus); test: as above; remark: listed apart in the source

Compound	IC50 [1] [nM]	IC50 [2] [nM]
Cc1ccc2c(c1)N(CC(=O)NC(C)(C)C)C(=O)[C@H](NC(=O)Nc1cccc(-c3nnn[nH]3)c1)C[C@@H]2C(C)C [N-tert-Butyl-2-((3R,5R)-5-isopropyl-8-methyl-2-oxo-3-{3-[3-(1H-tetrazol-5-yl)-phenyl]-ureido}-2,3,4,5-tetrahydro-benzo[b]azepin-1-yl)-acetamide]	0.98	
Cc1ccc2c(c1)N(CC(=O)NC(C)(C)C)C(=O)[C@H](NC(=O)Nc1cccc(C(=O)NS(=O)(=O)C(F)(F)F)c1)C[C@@H]2c1ccccc1 [N-tert-Butyl-2-{(3R,5R)-8-methyl-2-oxo-5-phenyl-3-[3-(3-trifluoromethanesulfonylaminocarbonyl-phenyl)-ureido]-2,3,4,5-tetrahydro-benzo[b]azepin-1-yl}-acetamide]	5.1	
Cc1ccc2c(c1)N(CC(=O)NC(C)(C)C)C(=O)[C@H](NC(=O)Nc1cccc(-c3nnn[nH]3)c1)C[C@@H]2C1CCCCC1 [N-tert-Butyl-2-((3R,5R)-5-cyclohexyl-8-methyl-2-oxo-3-{3-[3-(1H-tetrazol-5-yl)-phenyl]-ureido}-2,3,4,5-tetrahydro-benzo[b]azepin-1-yl)-acetamide]	0.22	
Cc1ccc2c(c1)N(CC(=O)NC(C)(C)C)C(=O)[C@H](NC(=O)Nc1cccc(C(=O)NS(=O)(=O)c3ccccc3C)c1)C[C@@H]2c1ccccc1 [N-tert-Butyl-2-((3R,5R)-8-methyl-2-oxo-5-phenyl-3-{3-[3-(toluene-2-sulfonylaminocarbonyl)-phenyl]-ureido}-2,3,4,5-tetrahydro-benzo[b]azepin-1-yl)-acetamide]	7.9	
Cc1ccc2c(c1)N(CC(=O)NC(C)(C)C)C(=O)[C@H](NC(=O)Nc1cccc(C(=O)O)c1)C[C@@H]2C1CCCCC1 [3-{3-[(3R,5R)-1-(tert-Butylcarbamoyl-methyl)-5-cyclohexyl-8-methyl-2-oxo-2,3,4,5-tetrahydro-1H-benzo[b]azepin-3-yl]-ureido}-benzoic acid]		0.1
COC(=O)c1cccc(NC(=O)N[C@@H]2C[C@H](C3CCCCC3)c3ccc(C)cc3N(CC(=O)NC(C)(C)C)C2=O)c1 [3-{3-[(3R,5R)-1-(tert-Butylcarbamoyl-methyl)-5-cyclohexyl-8-methyl-2-oxo-2,3,4,5-tetrahydro-1H-benzo[b]azepin-3-yl]-ureido}-benzoic acid methyl ester]	0.6	
CCS(=O)(=O)NC(=O)c1cccc(NC(=O)N[C@@H]2C[C@H](c3ccccc3)c3ccc(C)cc3N(CC(=O)NC(C)(C)C)C2=O)c1 [N-tert-Butyl-2-{(3R,5R)-3-[3-(3-ethanesulfonylaminocarbonyl-phenyl)-ureido]-8-methyl-2-oxo-5-phenyl-2,3,4,5-tetrahydro-benzo[b]azepin-1-yl}-acetamide]	1	
Cc1ccc2c(c1)N(CC(=O)NC(C)(C)C)C(=O)[C@H](NC(=O)Nc1cccc(C(=O)NS(=O)(=O)Cc3ccccc3)c1)C[C@@H]2c1ccccc1 [N-tert-Butyl-2-{(3R,5R)-8-methyl-2-oxo-5-phenyl-3-[3-(3-phenylmethanesulfonylaminocarbonyl-phenyl)-ureido]-2,3,4,5-tetrahydro-benzo[b]azepin-1-yl}-acetamide]	4.2	
COC(=O)c1cccc(NC(=O)N[C@@H]2C[C@H](c3ccccc3)c3ccc(C)cc3N(CC(=O)NC(C)(C)C)C2=O)c1 [3-{3-[(3R,5R)-1-(tert-Butylcarbamoyl-methyl)-8-methyl-2-oxo-5-phenyl-2,3,4,5-tetrahydro-1H-benzo[b]azepin-3-yl]-ureido}-benzoic acid methyl ester]	1.4	
Cc1ccc2c(c1)N(CC(=O)NC(C)(C)C)C(=O)[C@H](NC(=O)Nc1cccc(C(=O)NS(=O)(=O)c3ccccc3)c1)C[C@@H]2c1ccccc1 [2-{(3R,5R)-3-[3-(3-Benzenesulfonylaminocarbonyl-phenyl)-ureido]-8-methyl-2-oxo-5-phenyl-2,3,4,5-tetrahydro-benzo[b]azepin-1-yl}-N-tert-butyl-acetamide]	4.8	
Cc1ccc2c(c1)N(CC(=O)NC(C)(C)C)C(=O)[C@H](NC(=O)Nc1cccc(C(=O)NS(C)(=O)=O)c1)C[C@@H]2C1CCCCC1 [N-tert-Butyl-2-{(3R,5R)-5-cyclohexyl-3-[3-(3-methanesulfonylaminocarbonyl-phenyl)-ureido]-8-methyl-2-oxo-2,3,4,5-tetrahydro-benzo[b]azepin-1-yl}-acetamide]	0.26	
Cc1ccc2c(c1)N(CC(=O)NC(C)(C)C)C(=O)[C@H](NC(=O)Nc1cccc(-c3nnn[nH]3)c1)C[C@@H]2c1ccccc1 [N-tert-Butyl-2-((3R,5R)-8-methyl-2-oxo-5-phenyl-3-{3-[3-(1H-tetrazol-5-yl)-phenyl]-ureido}-2,3,4,5-tetrahydro-benzo[b]azepin-1-yl)-acetamide]	0.81	
Cc1ccc2c(c1)N(CC(=O)NC(C)(C)C)C(=O)[C@H](NC(=O)Nc1cccc(C(=O)NS(C)(=O)=O)c1)C[C@@H]2c1ccccc1 [N-tert-Butyl-2-{(3R,5R)-3-[3-(3-methanesulfonylaminocarbonyl-phenyl)-ureido]-8-methyl-2-oxo-5-phenyl-2,3,4,5-tetrahydro-benzo[b]azepin-1-yl}-acetamide]	0.88	
Cc1ccc2c(c1)N(CC(=O)NC(C)(C)C)C(=O)[C@H](NC(=O)Nc1cccc(-c3nnn[nH]3)c1)C[C@@H]2Cc1ccccc1 [2-((3R,5S)-5-Benzyl-8-methyl-2-oxo-3-{3-[3-(1H-tetrazol-5-yl)-phenyl]-ureido}-2,3,4,5-tetrahydro-benzo[b]azepin-1-yl)-N-tert-butyl-acetamide]	1.7	
Cc1ccc2c(c1)N(CC(=O)NC(C)(C)C)C(=O)[C@H](NC(=O)Nc1cccc(C(=O)O)c1)C[C@@H]2c1ccccc1 [3-{3-[(3R,5R)-1-(tert-Butylcarbamoyl-methyl)-8-methyl-2-oxo-5-phenyl-2,3,4,5-tetrahydro-1H-benzo[b]azepin-3-yl]-ureido}-benzoic acid]	2.7	

Source: BindingDB's records for doi:10.1016/0960-894X(95)00327-P (1995)
